Data taken from patent US20240132450A1, “MODULATORS OF G PROTEIN-COUPLED RECEPTOR 88” (ACADIA Pharmaceuticals Inc., priority 2020, published 2024).
Where two headings read alike, the source gives them in different places.

Experiments:
[1] = Hepatocyte stability (mouse); format: in vitro ADME; conditions: test compound 3 μM, 60 min; for hepatocyte CLint at 3 μM: mouse, cryopreserved pooled hepatocytes in suspension, read-out: Mouse heps Clint; for Mouse heps Clint: mouse cryopreserved hepatocytes
Method: (iii) Hepatocyte Stability (Human, Mouse, Rat or Dog)
Test compound (3 μM) is incubated with cryopreserved hepatocytes in suspension. Samples are removed at 6 time points over the course of a 60 min experiment and test compound is analysed by LC-MS/MS. An intrinsic clearance value (CLint) with standard error and half-life (t %) are calculated. Cryopreserved pooled hepatocytes are stored in liquid nitrogen prior to use. […] The final incubation volume is 500 μL. A control incubation is included for each compound tested where lysed cells are added instead of viable cells. Two control compounds are included with each species.
The reactions are stopped by transferring 50 μL of incubate to 100 μL methanol containing internal standard at the appropriate time points. The control (lysed cells) is incubated for 60 min only. The termination plates are centrifuged at 2500 rpm at 4° C. for 30 min to precipitate the protein. Following protein precipitation, the sample supernatants are combined in cassettes of up to 4 compounds and analysed using generic LC-MS/MS conditions. From a plot of In peak area ratio (compound peak area/internal standard peak area) against time, the gradient of the line is determined. Subsequently, half-life (t %) and intrinsic clearance (CLint) are calculated using the equations below: […]

hGPR88 receptor = hGPR88 receptor (Homo sapiens, UniProt Q9GZN0); assay: hGPR88-HEK cAMP accumulation assay; conditions: HEK-293 cells expressing human recombinant GPR88, forskolin 200 nM, High/Medium/Low bands
hGPR88 receptor, sequence (Q9GZN0 whole entry): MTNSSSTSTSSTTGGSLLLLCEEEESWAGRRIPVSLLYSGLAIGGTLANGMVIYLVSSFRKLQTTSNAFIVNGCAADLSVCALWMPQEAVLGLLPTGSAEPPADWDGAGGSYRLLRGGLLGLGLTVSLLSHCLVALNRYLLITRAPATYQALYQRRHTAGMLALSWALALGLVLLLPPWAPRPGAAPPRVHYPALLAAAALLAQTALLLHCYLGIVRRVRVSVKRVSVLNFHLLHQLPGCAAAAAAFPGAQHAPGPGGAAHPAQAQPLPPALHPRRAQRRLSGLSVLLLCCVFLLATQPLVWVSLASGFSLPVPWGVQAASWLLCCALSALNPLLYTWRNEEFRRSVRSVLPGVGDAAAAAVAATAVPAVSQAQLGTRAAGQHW
Method: Biological Assay 1: hGPR88-HEK cAMP Accumulation Assay
Cryopreserved vials of HEK-293 cells expressing human recombinant GPR88 receptor are re-suspended in KRH assay buffer and 5 μl of cell solution is suspended in test wells at a seeding density of 2500±500 cells per well using the multidrop to provide a final reaction volume of 10 μl containing 0.5% DMSO. Assay plate is incubated for 30 min at room temperature and the reaction is terminated by addition of 5 μl of each of the cAMP detection reagents of the cAMP Gi kit (Cisbio Bioassays, 62AM9PEJ), diluted in cell lysis buffer, to each well using the multidrop in the following order: first the cAMP-d2 conjugate, then the anti-cAMP cryptate conjugate. […] Raw counts were converted to cAMP concentrations via a standard curve before EC50 and Emax determination. Data is expressed as % decrease in forskolin stimulated cAMP compared to cells treated with vehicle alone in the same buffer and on the same plate.

[2] = read-out: GRP88 agonist activity (EC50)

hepatocyte CLint at 3 μM [1] [µL/min/1e6 cells] | EC50 (hGPR88 receptor; GRP88 agonist activity (EC50)) [nM] | Mouse heps Clint [1] [μL/min/10^6 cells] | EC50 (hGPR88 receptor; [2]) [nM] | Compound
30 |  |  | 1000 to 5000 | COCc1ccc(-c2ccc(NC(=O)C3CC3c3ccccn3)nc2)cc1 (racemic) [Example 121, (rac-trans)-N-(5-(4-(methoxymethyl)phenyl)pyridin-2-yl)-2-(pyridin-2-yl)cyclopropane-1-carboxamide]
 | 1000 to 5000 |  |  | COC(C)c1ccc(-c2ccc(NC(=O)C(C)(C)Oc3ccc(F)cc3)cc2)cc1 (stereo not shown) [Example 119, 2-(4-fluorophenoxy)-N-(4′-(1-methoxyethyl)-[1,1′-biphenyl]-4-yl)-2-methylpropanamide]
 | < 1000 |  |  | CC(C)(Oc1ccc(C#N)cc1)C(=O)Nc1ccc(-c2ccc(CN3CCOCC3)cc2)cc1 [Example 124, 2-(4-cyanophenoxy)-2-methyl-N-(4′-(morpholinomethyl)-[1,1′-biphenyl]-4-yl)propenamide]
 | > 5000 |  |  | CN(C)c1ccc(-c2ccc(NC(=O)C3CC3c3ccccn3)cc2)cn1 (stereo not shown) [Example 125, N-(4-(6-(dimethylamino)pyridin-3-yl)phenyl)-2-(pyridin-2-yl)cyclopropane-1-carboxamide]
 | > 5000 |  |  | CN(C)c1ncc(-c2ccc(NC(=O)C3CC3c3ccccn3)cc2)cn1 (stereo not shown) [Example 126, N-(4-(2-(dimethylamino)pyrimidin-5-yl)phenyl)-2-(pyridin-2-yl)cyclopropane-1-carboxamide]
 | < 1000 |  |  | COCc1ccc(-c2ccc(NC(=O)C3(Oc4ccc(F)cc4)CCC3)cc2)cc1 [Example 127, 1-(4-fluorophenoxy)-N-(4′-(methoxymethyl)-[1,1′-biphenyl]-4-yl)cyclobutane-1-carboxamide]
 | < 1000 |  |  | COCc1ccc(-c2ccc(NC(=O)C(C)(C)Oc3ccc(C)cc3)cc2)cc1 [Example 128, N-(4′-(methoxymethyl)-[1,1-biphenyl]-4-yl)-2-methyl-2-(p-tolyloxy) propenamide]
 | < 1000 |  |  | O=C(Nc1ccc(-c2ccc(CN3CCOCC3)cc2)cc1)C1(Oc2ccc(F)cc2)CC1 [Example 129, 1-(4-fluorophenoxy)-N-(4′-(morpholinomethyl)-[1,1′-biphenyl]-4-yl)cyclo propane-1-carboxamide]
 | > 5000 |  |  | CC(C)OCc1ccc(-c2ccc(NC(=O)C(C)(C)Oc3ccc(F)cc3)cc2)cc1 [Example 131, 2-(4-fluorophenoxy)-N-(4′-(isopropoxymethyl)-[1,1′-biphenyl]-4-yl)-2-methylpropanamide]
 | 1000 to 5000 |  |  | CC(C)(Oc1ccc(F)cc1)C(=O)Nc1ccc(-c2ccc(COC3CC3)cc2)cc1 [Example 132, N-(4′-(cyclopropoxymethyl)-[1,1′-biphenyl]-4-yl)-2-(4-fluorophenoxy)-2-methylpropanamide]
 | 1000 to 5000 |  |  | COCc1ccc(-c2ccc(NC(=O)C(C)(C)Oc3ccc(F)cn3)cc2)cc1 [Example 138, 2-((5-fluoropyridin-2-yl)oxy)-N-(4′-(methoxymethyl)-[1,1′-biphenyl]-4-yl)-2-methylpropanamide]
 | > 5000 |  |  | COCc1ccc(-c2ccc(N(CCC#N)C(=O)C(C)(C)Oc3ccc(F)cc3)cc2)cc1 [Example 139, N-(2-cyanoethyl)-2-(4-fluorophenoxy)-N-(4′-(methoxymethyl)-[1,1′-biphenyl]-4-yl)-2-methylpropanamide]
 | 1000 to 5000 |  |  | CCOc1ccc(-c2ccc(NC(=O)C(C)(C)Oc3ccccn3)cc2)cn1 [Example 140, N-(4-(6-ethoxypyridin-3-yl)phenyl)-2-methyl-2-(pyridin-2-yloxy)propanamide]
 | > 5000 |  |  | COCc1ccc(-c2ccc(N(CC(C)(C)O)C(=O)C3CC3c3ccccn3)cc2)cc1 (stereo not shown) [Example 141, N-(2-hydroxy-2-methylpropyl)-N-(4′-(methoxymethyl)-[1,1′-biphenyl]-4-yl)-2-(pyridin-2-yl)cyclopropane-1-carboxamide]
 |  |  | > 5000 | COCc1ccc(-c2ccc(N(CC(C)(C)O)C(=O)C3CC3c3ccccn3)cc2)cc1 (stereo not shown) [Example 142, N-(2-hydroxy-2-methylpropyl)-N-(4′-(methoxymethyl)-[1,1′-biphenyl]-4-yl)-2-(pyridin-2-yl)cyclopropane-1-carboxamide]

Further lines, the molecule ahead of its results:

Compound | hepatocyte CLint at 3 μM [1] [µL/min/1e6 cells] | EC50 (hGPR88 receptor; GRP88 agonist activity (EC50)) [nM] | Mouse heps Clint [1] [μL/min/10^6 cells] | EC50 (hGPR88 receptor; [2]) [nM]
CCCc1ccc(C23CC(NC(=O)C4CC4c4ccccn4)(C2)C3)cc1 (racemic) [Example 8, (rac-trans)-N-(3-(4-propylphenyl)bicyclo[1.1.1]pentan-1-yl)-2-(pyridin-2-yl)cyclopropane-1-carboxamide] | 55 | < 1000 |  | 
CCCc1ccc(C23CC(NC(=O)C4CC4c4ccccn4)(C2)C3)cc1 (racemic) [Example 35, (rac-trans)-N-(3-(4-propylphenyl)bicyclo[1.1.1]pentan-1-yl)-2-(pyridin-2-yl)cyclopropane-1-carboxamide] |  | < 1000 | 49 | 
CCOc1ccc(-c2ccc(NC(=O)C3CC3c3ccccn3)cc2)cn1 (racemic) [Example 36, (rac-trans)-N-(4-(6-ethoxypyridin-3-yl)phenyl)-2-(pyridin-2-yl)cyclopropane-1-carboxamide] |  | 1000 to 5000 | 80 | 
COCc1ccc(-c2ccc(NC(=O)C3CC3c3ccccn3)cc2)cc1 (single isomer, unassigned) [Example 18, N-(4′-(methoxymethyl)-[1,1′-biphenyl]-4-yl)-2-(pyridin-2-yl)cyclopropane-1-carboxamide] | 70 | < 1000 |  | 
COCc1ccc(-c2ccc(NC(=O)C(C)(C)Oc3ccc(Cl)cc3)cc2)cc1 [Example 3] | 30 | < 1000 |  | 
COCc1ccc(-c2ccc(NC(=O)C(C)(C)Oc3ccccc3)cc2)cc1 [Example 4, N-(4′-(methoxymethyl)-[1,1′-biphenyl]-4-yl)-2-methyl-2-phenoxypropanamide] | 51 | < 1000 |  | 
COCc1ccc(-c2ccc(NC(=O)C(C)(C)Oc3ccccn3)cc2)cc1 [Example 7, N-(4′-(methoxymethyl)-[1,1′-biphenyl]-4-yl)-2-methyl-2-(pyridin-2-yloxy)propanamide] | 46 | 1000 to 5000 |  | 
CCCc1ccc(C23CC(NC(=O)C(C)(C)Oc4ccc(F)cc4)(C2)C3)cc1 [Example 9, 2-(4-fluorophenoxy)-2-methyl-N-(3-(4-propylphenyl)bicyclo[1.1.1]pentan-1-yl)propenamide] | 39 | 1000 to 5000 |  | 
COCc1ccc(-c2ccc(N(C)C(=O)C(C)(C)Oc3ccc(F)cc3)cc2)cc1 [Example 13, 2-(4-fluorophenoxy)-N-(4′-(methoxymethyl)-[1,1′-biphenyl]-4-yl)-N,2-dimethylpropanamide] | 90 | 1000 to 5000 |  | 
CN(C)Cc1ccc(-c2ccc(NC(=O)C(C)(C)Oc3ccc(F)cc3)cc2)cc1 [Example 17, N-(4′-((dimethylamino)methyl)-[1,1′-biphenyl]-4-yl)-2-(4-fluorophenoxy)-2-methylpropanamide] | 37 | 1000 to 5000 |  | 
CC(C)(Oc1ccc(F)cc1)C(=O)Nc1ccc(-c2ccc(CN3CCOCC3)cc2)cc1 [Example 25, 2-(4-fluorophenoxy)-2-methyl-N-(4′-(morpholinomethyl)-[1,1′-biphenyl]-4-yl)propenamide] | 41 | < 1000 |  | 
COCc1ccc(-c2ccc3c(c2)CCN3C(=O)C(C)(C)Oc2ccc(F)cc2)cc1 [Example 32, 2-(4-fluorophenoxy)-1-(5-(4-(methoxymethyl)phenyl)indolin-1-yl)-2-methylpropan-1-one] | 65 | 1000 to 5000 |  | 
COCc1ccc(-c2ccc(NC(=O)C3(Oc4ccc(F)cc4)CC3)cc2)cc1 [Example 53, 1-(4-fluorophenoxy)-N-(4′-(methoxymethyl)-[1,1′-biphenyl]-4-yl)cyclopropane-1-carboxamide] | 71 | < 1000 |  | 
COCc1ccc(-c2ccc(NC(=O)C(C)(C)Oc3ccc(C#N)cc3)cc2)cc1 [Example 68, 2-(4-cyanophenoxy)-N-(4′-(methoxymethyl)-[1,1′-biphenyl]-4-yl)-2-methylpropanamide] | 37 | < 1000 |  | 
CCOc1ccc(OC(C)(C)C(=O)Nc2ccc(-c3ccc(COC)cc3)cc2)cc1 [Example 70, 2-(4-ethoxyphenoxy)-N-(4′-(methoxymethyl)-[1,1′-biphenyl]-4-yl)-2-methylpropanamide] | 74 | < 1000 |  | 
CC(C)Oc1ccc(-c2ccc(NC(=O)C(C)(C)Oc3ccc(F)cc3)cc2)cn1 [Example 92, 2-(4-fluorophenoxy)-N-(4-(6-isopropoxypyridin-3-yl)phenyl)-2-methylpropanamide] | 47 | < 1000 |  | 
CN(C)c1ncc(-c2ccc(NC(=O)C(C)(C)Oc3ccc(C#N)cc3)cc2)cn1 [Example 117, 2-(4-cyanophenoxy)-N-(4-(2-(dimethylamino)pyrimidin-5-yl)phenyl)-2-methylpropanamide] |  | 1000 to 5000 |  | 
